Measured values: patent US20240398706A1, “INJECTABLE FORMULATIONS OF APREPITANT” (Good Health, LLC, priority 2021, published 2024)

How the values were obtained:
[1] = pH and clarity of 5.55 mg/mL sodium oleate solution; type: physicochemical; conditions: sodium oleate 5.55 mg/mL solution
Experimental: After the initial pH measurement discussed above, the compositions of this embodiment have a pH value of at least 7.5. In some embodiments the PH is in the range of between 7.5-10.5 or between 8.5-10.8. This pH value is observed a short period, e.g. a few days, after formation of the emulsion, and is to be contrasted with the initial pH value which is measured substantially immediately after the formation of the emulsion. Preferably, the fatty acid content of the oleate is high, e.g. at least about 80% and the alkalinity of oleate when tested as an aqueous solution is also relatively high, e.g. at least about pH of 10.3 of 0.55% W/V solution in water.

[2] = Emulsion formation of Form-81 with sodium oleate from different sources; type: physicochemical; conditions: Form-81 with sodium benzoate, after mixing oil and water phases and stirring
Experimental: The solution was heated to about 55-68° C., while stirring aprepitant was added and continued stirring until all of the drug is dissolved. After cooling to room temperature, Sodium oleate was added to mixture and stirred to get uniform dispersion. Ethanol quantity adjusted by adding ethanol to mixture to compensate loss. Weight of container was recorded at each stage.
Oil phase slowly added to water phase slowly while water phase stirred at 1000 RPM using overhead stirrer.
Coarse emulsion was milled using microfluidizer (Microfluidizer LM-25/30), […].

[3] = after oral administration; cited from earlier work

Structure (SMILES)	Clarity [1]	pH of 5.55 mg/mL solution [1]	Emulsion formation [2]	oral bioavailability [3]	Emulsion formation ([2]; listed as oleate from Loba Chemie)
CCCCCCCC/C=C\CCCCCCCC(=O)[O-].[Na+] [Sodium Oleate from Lipoid, Germany, Sodium Oleate]	Hazy solution	10.36	slightly viscous emulsions	–	–
CCCCCCCC/C=C\CCCCCCCC(=O)[O-].[Na+] [Sodium Oleate from Doosan, South Korea, Sodium Oleate]	Clear solution	–	slightly viscous emulsions	–	–
C[C@@H](O[C@H]1OCCN(Cc2n[nH]c(=O)[nH]2)[C@H]1c1ccc(F)cc1)c1cc(C(F)(F)F)cc(C(F)(F)F)c1 [Aprepitant]	–	–	–	about 69%	–
CCCCCCCC/C=C\CCCCCCCC(=O)[O-].[Na+] [Sodium Oleate from Loba Chemie, India, Sodium Oleate]	Clear solution	10.78	Free flowing emulsion.	–	free-flowing emulsion
